Conditions: mammal plasma collected 0.5 hours after being drenched with strengthening body resistance and dissipating blood stasis botanical (FZHY); solid-phase extraction, UPLC/MS negative ion mode
Method: Method of pretreating mammalian blood plasma sample: Collect mammal plasma containing drugs 0.5 hours after being administered the strengthening body resistance and dissipating blood stasis botanical, misce bene after adding 2-5 mol/L phosphoric acid, and the volume ratio between the blood plasma and phosphoric acid is 1:2-3, applying the blood plasma with drugs to small column of WATERS OASIS HLB (a type of chromatographic column) activated by methanol and water; after leaching with water and 80-100% methanol and eluting with 0.2-1% ammonia-methanol, drying and enriching the eluent under the condition of 25-30° C., and redissolving the eluent with mobile phase.
UPLC/MS detection method: The analysis conditions of the applied UPLC/MS method in this invention, UPLC condition: chromatographic column: ACQUITY HPLC BEH C18 (a type of chromatographic column), 2.1×100 mm, mobile phase A: Water-Acetonitrile-Formic acid 95:5:0.1 v/v/v, mobile phase B: Acetonitrile-Formic acid 100:0.1 v/v, eluting in accordance with the following gradient: […]

With `O=C(O)[C@H](O)Cc1ccc(O)c(O)c1` [Danshensu] the “Detection in the blood plasma” value was “can be detected”.

In the case of `O=C(/C=C/c1ccc(O)c2c1[C@H](C(=O)O[C@H](Cc1ccc(O)c(O)c1)C(=O)O)[C@@H](c1ccc(O)c(O)c1)O2)O[C@H](Cc1ccc(O)c(O)c1)C(=O)O` [Salvianolic acid B], the “Detection in the blood plasma” value is reported as “can be detected”.
